Entries after “also recorded” stand apart in the source; their conditions may differ.
Key:
[1] = system: primary mesencephalic cultures; assay: MTT cell viability assay; format: cell-based, mouse; conditions: 24 h
Method: The cytotoxic effect of compounds treatment was measured by evaluating mitochondrial dehydrogenase activity using the MTT salt assay.
Neuronal differentiated SK—N—SH cells were thus exposed to different concentrations of I-threo, IV-threo, I-erythro, V-threo and V-erythro as described above, and then used for the MTT cell viability assay.
Animals: C57BL/6J wt mice (C57BL/6J) (Charles River, Wilmington, MA) used in this study, were bred in our animal house facility at the Department of Molecular and Translational Medicine of University of Brescia. Animals were maintained under a 12h light-dark cycle at a room temperature (rt) of 22° C. and had ad libitum food and water. All experiments were made in accordance to Directive 2010/63/EU of the European Parliament and of the Council of 22 Sep. 2010 on the protection of animals used. All experimental and surgical procedures conformed to the National Research Guide for the Care and Use of Laboratory Animals were approved by the Animal Research Committees of the University of Brescia (Protocol Permit 719/2015-PR). All achievements were made to minimize animal suffering and to reduce the number of animals used. Primary neuronal cultures from mesencephalic tissues were dissected from C57BL/6J 13-days embryos. Briefly, after mechanical dissociation the single cells were re-suspended in Neurobasal medium containing 100 μg/ml penicillin, 100 μg/ml streptomycin, 0.5 mM glutamine and 1% B27 supplement. Cells were then centrifuged and cell count and viability assays were performed using the Trypan Blue exclusion test. Cells were seeded onto poly-D-lysine-coated glass coverslides in 24-well plates (14 μg/mL) for immunocytochemistry (100000 cells/well). Cells were maintained at 37° C. under a humidified atmosphere of 5% CO2 and […] for at least 10 days in vitro (DIV 10) prior to their use to allow their maturation. At DIV 10, cells were treated with increasing concentrations (0.01 μM-0.1 μM-1 μM-[…]) of the different compounds (I-threo, IV-threo, I-erythro, V-threo, VI-threo). Twenty-four h after the treatments, culture medium was removed and 300 μL of MTT 0.5 mg/mL diluted in culture medium was added to each well. After 90′ incubation at 37° C., the medium was removed and 250 μL aliquots of DMSO were added to each well to solubilize the formazan crystals. Absorbance was measured at 570 nm using a microplate reader. Cell viability was expressed as absorbance value.

[2] = biological target: T1, alpha-synuclein/Synapsin III interaction (Homo sapiens, UniProt O14994+P37840); assay: Acceptor photobleaching FRET of alpha-synuclein/Synapsin III interaction in neuronal-differentiated SK-N-SH cells; format: cell-based; conditions: 10 μM, 15 min; for stimulation of alpha-synuclein/Synapsin III interaction (FRET efficiency), in words: vs basal
T1 construct: expressed in transfected cells; host or cells: neuronal-differentiated (retinoic acid) human SK-N-SH neuroblastoma cells, transient transfection with Lipofectamine 3000
T1 sequence (O14994 whole entry, one chain of several): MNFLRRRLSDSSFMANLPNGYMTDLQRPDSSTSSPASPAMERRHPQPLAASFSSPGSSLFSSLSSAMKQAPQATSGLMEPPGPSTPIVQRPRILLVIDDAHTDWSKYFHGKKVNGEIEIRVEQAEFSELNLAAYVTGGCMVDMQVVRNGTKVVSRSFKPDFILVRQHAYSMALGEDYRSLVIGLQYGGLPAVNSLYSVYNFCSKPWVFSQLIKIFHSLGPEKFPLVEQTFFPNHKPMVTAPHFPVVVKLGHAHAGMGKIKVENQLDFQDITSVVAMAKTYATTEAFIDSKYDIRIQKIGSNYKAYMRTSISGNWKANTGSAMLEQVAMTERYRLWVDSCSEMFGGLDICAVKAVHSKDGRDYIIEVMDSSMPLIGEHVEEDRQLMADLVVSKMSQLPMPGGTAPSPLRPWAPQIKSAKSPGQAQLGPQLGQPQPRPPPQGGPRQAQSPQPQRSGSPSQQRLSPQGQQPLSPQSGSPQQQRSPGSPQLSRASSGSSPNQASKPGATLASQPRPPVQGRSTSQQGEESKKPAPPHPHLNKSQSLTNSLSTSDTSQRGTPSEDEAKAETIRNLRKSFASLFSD
Method: The ability of the different compound to stimulate alpha-synuclein/Synapsin III interaction was evaluated by acceptor photobleaching FRET or FLIM in neuronal-like cells. In particular, we used neuronal-differentiated SK—N—SH neuroblastoma cells transiently transfected with red fluorescent protein (RFP)-tagged human wild type alpha-synuclein and green fluorescent protein (GFP)-tagged the human 63 kDa Synapsin III isoform.
Acceptor photobleaching FRET microscopy allows an accurate evaluation of protein-protein interaction through the measurement of FRET efficiency. This parameter is indicative of the increase of donor fluorescence after complete photobleaching of the acceptor fluorescence, within a FRET pair of fluorophores (where the emission wavelength of a donor falls within the excitation wavelength of an acceptor). Since FRET efficiency is detectable only when the two fluorophores are sufficiently close to ensure that their linked proteins are interacting, the molecular proximity of these latter results strictly dependent on this parameter^36,37. […] Human neuroblastoma SK—N—SH cells were grown in complete medium comprising Dulbecco's modified Eagle's medium with 1000 mg glucose/l supplemented with 10% heat-inactivated fetal bovine serum, 100 μg/ml penicillin and 100 μg/ml streptomycin. Cells were maintained at 37° C. under a humidified atmosphere of 5% CO2 and […]. For FRET studies, SK—N—SH cells were seeded onto poli-D-lysine-coated 13 mm glass coverslips in 24-well plates (15000 cells per coverslip) and were maintained in differentiation medium for ten days by daily adding 10 μM retinoic acid to the medium. […] Fixed cells were analyzed by means of a Zeiss confocal laser microscope LSM 880 (Carl Zeiss) with the laser set on A=488-543. After identifying double positive cells three-to-six regions of interest (ROI) were analyzed for 4 series. Two images of basal condition (Pre-bleaching) were acquired before bleaching the RFP acceptor fluorophore with laser 543 set at 65% power. Then, other two images were acquired after the bleaching (Post-bleaching). The FRET efficiency (intended as the GFP recovery after RFP photobleaching) was measured by using Zen black software (Carl Zeiss). The average intensity of the background (outside the cell) was subtracted from the average intensity of the ROI and all the FRET values resulting from the different ROI were used for statistical analysis.
Human neuroblastoma SK—N—SH cells were grown in complete medium comprising Dulbecco's modified Eagle's medium with 1000 mg glucose/l supplemented with 10% heat-inactivated fetal bovine serum, 100 μg/ml penicillin and 100 μg/ml streptomycin. Cells were maintained at 37° C. under a humidified atmosphere of 5% CO2 and […]. For FRET studies, SK—N—SH cells were seeded onto poli-D-lysine-coated 13 mm glass coverslips in 24-well plates (15000 cells per coverslip) and were maintained in differentiation medium for ten days by daily adding 10 μM retinoic acid to the medium. […] Fixed cells were analyzed by means of a Zeiss confocal laser microscope LSM 880 (Carl Zeiss) with the laser set on λ=488-543. After identifying double positive cells three-to-six regions of interest (ROI) were analyzed for 4 series. Two images of basal condition (Pre-bleaching) were acquired before bleaching the RFP acceptor fluorophore with laser 543 set at 65% power. Then, other two images were acquired after the bleaching (Post-bleaching). The FRET efficiency (intended as the GFP recovery after RFP photobleaching) was measured by using Zen black software (Carl Zeiss). The average intensity of the background (outside the cell) was subtracted from the average intensity of the ROI and all the FRET values resulting from the different ROI were used for statistical analysis.

COC(=O)[C@H](c1ccc(C)cc1)C1CCCCN1.Cl (stereo partly drawn) [I-erythro]
cell viability (MTT) at 100 μM [1]: did not result toxic | stimulation of alpha-synuclein/Synapsin III interaction (FRET efficiency), in words [2]: not able to stimulate alpha-synuclein/Synapsin III interaction; also recorded: No significant increase

COC(=O)[C@@H](c1ccc(C)cc1)C1CCCCN1.Cl (stereo partly drawn) [I-threo, threo methyl 2-(piperidin-2-yl)-2-(p-tolyl)acetate hydrochloride]
cell viability (MTT) at 100 μM ([1]; hydrochloride): reduce the cell viability; also recorded: significant decrease in cell viability | toxic effects (MTT) at the working concentrations ([1]; concentrations reducing aggregation or stimulating interaction): did not exhibit toxic effects | % FRET efficiency change vs control untreated cells ([2]; neuronally differentiated SK-N-SH cells): +8.8% | % FRET efficiency change vs MPH-treated cells ([2]; vs MPH 10 μM): +5.5% | % FRET efficiency change vs VI-threo-treated cells ([2]; vs VI-threo 10 μM): +5.2% | stimulation of alpha-synuclein/Synapsin III interaction (FRET efficiency), in words [2]: significant increase in the FRET efficiency
